Calls of active or inactive are those of the source. The calls are words filed in the database; no cut-off is given here.
What was measured:
[1] = molecular target: T1, Platelet-derived growth factor receptor beta (Homo sapiens, UniProt P09619); test: Inhibition of recombinant cytoplasmic domain of PDGFRbeta expressed in baculovirus infected Sf21 insect cells assessed as tyrosine phosphorylation treated 30 hrs after infection measured after 48 hrs of post infection by Western blotting
[2] = Inhibition of PDGF-dependent PDGFR-mediated cell proliferation in rat A10 cells; assay type: cell-based
[3] = molecular target: T1, Platelet-derived growth factor receptor beta; test: Inhibition of recombinant cytoplasmic domain of PDGFRbeta autophosphorylation expressed in baculovirus infected Sf21 insect cells using [gamma-33P]ATP by SDS-PAGE based scintillation counting
[4] = molecular target: T1, Platelet-derived growth factor receptor beta; test: Inhibition of recombinant cytoplasmic domain of PDGFRbeta expressed in baculovirus infected Sf21 insect cells using 10 fold less poly(Glu4,Tyr1) and [gamma-33P]ATP at 100 uM by SDS-PAGE based scintillation counting
[5] = molecular target: T1, Platelet-derived growth factor receptor beta; test: Inhibition of recombinant cytoplasmic domain of PDGFRbeta expressed in baculovirus infected Sf21 insect cells using poly(Glu4,Tyr1) and [gamma-33P]ATP at 100 uM by SDS-PAGE based scintillation counting
[6] = Inhibition of PDGF-dependent PDGFR autophosphorylation in rat A10 cells; assay type: cell-based

T1 sequence (P09619 whole entry, the tested form may be a part): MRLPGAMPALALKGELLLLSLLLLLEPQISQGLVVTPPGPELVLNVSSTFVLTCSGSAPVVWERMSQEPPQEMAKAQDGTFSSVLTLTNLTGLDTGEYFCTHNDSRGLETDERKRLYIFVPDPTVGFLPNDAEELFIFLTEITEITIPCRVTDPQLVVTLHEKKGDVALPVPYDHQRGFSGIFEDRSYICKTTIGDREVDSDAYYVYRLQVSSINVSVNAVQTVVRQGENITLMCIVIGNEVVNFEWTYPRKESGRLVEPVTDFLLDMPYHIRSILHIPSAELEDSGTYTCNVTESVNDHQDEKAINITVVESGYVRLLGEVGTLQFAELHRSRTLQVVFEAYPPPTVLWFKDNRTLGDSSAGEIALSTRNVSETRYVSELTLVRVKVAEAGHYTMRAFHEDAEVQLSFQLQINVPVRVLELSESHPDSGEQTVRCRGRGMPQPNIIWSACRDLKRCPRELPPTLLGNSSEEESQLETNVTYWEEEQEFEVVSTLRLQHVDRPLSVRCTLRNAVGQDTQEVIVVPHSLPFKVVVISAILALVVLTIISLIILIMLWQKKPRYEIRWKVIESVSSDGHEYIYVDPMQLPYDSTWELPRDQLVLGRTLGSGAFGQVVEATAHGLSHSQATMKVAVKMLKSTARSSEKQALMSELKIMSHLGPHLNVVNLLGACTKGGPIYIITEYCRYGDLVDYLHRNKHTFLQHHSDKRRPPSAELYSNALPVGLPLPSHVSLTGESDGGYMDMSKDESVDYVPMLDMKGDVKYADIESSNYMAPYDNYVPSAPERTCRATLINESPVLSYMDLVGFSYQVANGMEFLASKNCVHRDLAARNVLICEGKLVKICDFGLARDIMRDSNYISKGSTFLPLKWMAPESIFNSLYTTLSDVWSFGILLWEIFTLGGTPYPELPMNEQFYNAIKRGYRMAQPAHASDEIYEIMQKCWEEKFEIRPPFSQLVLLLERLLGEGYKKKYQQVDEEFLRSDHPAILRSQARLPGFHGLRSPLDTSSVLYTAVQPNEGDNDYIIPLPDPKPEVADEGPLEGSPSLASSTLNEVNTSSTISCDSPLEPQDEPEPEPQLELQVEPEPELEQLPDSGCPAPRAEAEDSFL

Question: Which IC50 [1] does the source give for `COc1ccc2[nH]c3c4[nH]c5ccc(OC)cc5c4c4c(c3c2c1)C(=O)NC4=O` [GW296115X] here?
Answer: The IC50 was 2000 nM.

Question: And the inhibition [1]?
Answer: The inhibition was “Dose-dependent effect”.

Question: And the IC50 [2]?
Answer: Its IC50 is 10 nM.

Question: What about the IC50 [3] of the same compound?
Answer: The IC50 was 1800 nM.

Question: And the inhibition [3]?
Answer: Its inhibition is “Dose-dependent effect”.

Question: And the inhibition [4]?
Answer: The inhibition was “inactive”.

Question: What about the inhibition [5] of the same compound?
Answer: The inhibition was “inactive”.

Question: And the IC50 [6]?
Answer: Its IC50 is 15 nM.

— ChEMBL document CHEMBL1955835, “Effects of the indolocarbazole 3744W on the tyrosine kinase activity of the cytoplasmic domain of the platelet-derived growth factor beta-receptor” (Cell Signal, 1999)
